{"source": "paper PMC12736958", "about": "(Pharmaceutics, 2025)", "key": {"[1]": {"assay": "in vitro non-sink dissolution", "format": "physicochemical", "conditions": "Cur-equivalent 1 mg/mL, water pH 7.0, 37 °C", "description": "(§1) The dissolution behavior of Cur formulations was evaluated under non-sink conditions. Tested formulations included pure amorphous Cur, binary Cur/P188 ASD (1:8, w/w), and ternary Cur/P188/TW80 and Cur/P188/SLS ASDs (1:8:1, w/w/w). Each sample was introduced into 6 mL of water (pH 7.0) to achieve a Cur-equivalent concentration of 1 mg/mL at 37 °C. Aliquots (0.4 mL) were collected at 10, 20, and 45 min, as well as at 1h and 2 h, and immediately centrifuged (10,000 rpm, 3 min, 25 °C) to separate the supernatant from the precipitate. (1) The supernatant was diluted 1:2 (v/v) with methanol and analyzed for Cur concentration via HPLC/UV-Vis; (2) The precipitate was vacuum-dried and analyzed for crystallinity using PXRD.\nAll dissolution experiments were conducted in triplicate (n = 3).\nCur content in in vitro dissolution samples was quantified using a Waters 2695 Alliance HPLC system (Waters Corporation, Milford, MA, USA) equipped with a Waters 2998 photodiode array (PDA) detector. Separation was performed on an XBridge® C18 column (4.6 × 250 mm, 5.0 μm; Waters) maintained at 25 °C. The mobile phase, composed of water and methanol (80:20, v/v), was delivered isocratically at a flow rate of 1.0 mL/min. The injection volume was 10 μL, and detection was performed at 430 nm, and Cur eluted at approximately 4.80 min. […]"}, "[2]": {"assay": "PXRD crystallinity of precipitates collected during dissolution", "format": "physicochemical", "conditions": "precipitates collected at 20 min and 1 h of non-sink dissolution", "description": "PXRD was used to characterize the crystalline nature of both freshly prepared Cur ASDs and precipitates collected during their dissolution. Measurements were conducted on a Rigaku Smartlab diffractometer (Rigaku Corporation, Tokyo, Japan) configured in Bragg–Brentano geometry using Cu Kα1 radiation. Diffractograms were collected over a 2θ range of 0° to 60° with a step size of 0.01°.\nas §1"}, "MDCK cells [3]": {"system": "MDCK cells", "assay": "cellular uptake study (LC-MS/MS of intracellular Cur)", "format": "cell-based, canine", "conditions": "10 min incubation, 5 μg Cur-equivalent (10 μg/mL)", "description": "MDCK cells were seeded in 24-well plates and cultured following the procedures described in Cytotoxicity Assay section. The cells were treated with 500 µL of complete DMEM medium (pH 7.4) containing crystalline Cur, amorphous Cur, binary Cur/P188 ASD (1:8, w/w), or ternary Cur/P188/TW80 or Cur/P188/SLS ASDs (1:8:1, w/w/w), at Cur-equivalent dose of 5 µg per well. After 10 min of incubation, the treatment was terminated by immediate removal of the medium. The cells were then washed three times with ice-cold PBS, lysed with 200 µL of 0.1% SDS (assisted by sonication), and dissolved in methanol at a 1:2 (v/v) ratio. The total intracellular Cur content was quantified using LC-MS/MS. All experiments were performed in quadruplicate (n = 4).\nCur quantification in cellular and rat plasma samples was carried out using a SCIEX QTRAP® 5500 LC-MS/MS system coupled with a SCIEX ExionLC^TM AC system (AB SCIEX, Framingham, MA, USA).\nSeparation was achieved on an Acquity UPLC® BEH C18 column (100 × 2.1 mm, 1.7 μm; Waters) maintained at 40 °C. […]\nMass spectrometric detection was performed using an IonDrive^TM Turbo V ion (SCIEX, Framingham, MA, USA) source operating in negative electrospray ionization (ESI) mode. Quantification was conducted via multiple reaction monitoring (MRM) at m/z 367.1→133.9 for Cur, and m/z 294.1→250.0 for diclofenac sodium (IS). […]"}, "MDCK cells [4]": {"system": "MDCK cells", "assay": "cytotoxicity assay (CCK-8 cell viability)", "format": "cell-based, canine", "conditions": "4 h treatment", "description": "Madin-Darby Canine Kidney (MDCK) cells were seeded in 96-well plates (1 × 10^5 cells/well) and cultured for 24 h at 37 °C in complete DMEM (10% FBS, 1% penicillin–streptomycin) under 5% CO2. Cells were treated for 4 h with 100 µL of complete DMEM media (pH 7.4) containing crystalline Cur, amorphous Cur, binary Cur/P188 ASD (1:8, w/w), or ternary Cur/P188/TW80 or Cur/P188/SLS ASDs (1:8:1, w/w/w), at Cur-equivalent concentrations of 0 (vehicle), 2, 10, 25, 50, 100, and 200 μg/mL. After treatment, cells were washed three times with PBS (pH 7.4). Cell viability was assessed using a CCK-8 assay: 100 µL of serum-free DMEM and 10 µL of CCK-8 reagent were added to each well, followed by incubation for 2 h. Absorbance was measured at 450 nm using a Multiskan GO microplate reader (Thermo Fisher Scientific, Vantaa, Finland).\nCell viability was calculated according to the following equation:Viability (%) = [(As − Aᵦ)/(Ac − Aᵦ)] × 100% where\n• As is the absorbance of experimental wells (cells + treatment + CCK-8); • Ac is the absorbance of control wells (cells + medium + CCK-8, no drug); • Aᵦ is the absorbance of blank wells (medium + CCK-8, no cells, no drug).\nAll experiments were performed in quintuplicate (n = 5)."}}, "data": [{"molecule": "COc1cc(/C=C/C(=O)CC(=O)/C=C/c2ccc(O)c(OC)c2)ccc1O", "note": "[amorphous Cur, Curcumin]", "values": [{"measurement": "dissolved Cur concentration reached over 2 h", "setting": "[1]", "value": "~ 1 μg/mL"}, {"measurement": "crystallinity of precipitates during dissolution (PXRD)", "setting": "[2]", "value": "crystallized immediately upon hydration"}, {"measurement": "cellular uptake (% of the administered dose)", "setting": "MDCK cells [3]", "value": 1.4, "unit": "%"}, {"measurement": "IC50 (cytotoxicity, Cur-equivalent)", "setting": "MDCK cells [4]", "value": 54.7, "unit": "mg/L"}]}]}
